# Reference: patent publication US5929039A, “Method for treating cardiac dysfunction and pharmaceutical compositions useful therefor” (Baker Medical Research Institute, priority 1993, dated 1999)
# Read-outs that look alike come from different tables or passages of the source.
# Assays:
# [1] = test system: [3H]-labelled inositol phosphate accumulation; assay: [3H]-labelled inositol phosphate accumulation in isolated perfused rat hearts under ischaemia and post-ischaemic reperfusion; conditions: for average inhibition of [3H]-labelled inositol phosphate accumulation: vs 2 min post-ischaemic reperfusion without neomycin
# Method: (§1) Adult male sprague dawley rats 250-300 g were used. Where indicated, rats were treated with reserpine (5 mg/kg I.P. for 18 hrs prior to killing) to deplete endogenous noradrenaline stores.. Rats were heparinized 1 U/g I.P. 30 minutes prior to killing by decapitation. Hearts were rapidly excised and immediately chilled in ice-cold saline. Under ice-cold solution, hearts were cannulated via the ascending aorta as described by Langendorff and perfused retrogradely at a rate of 5 ml/min with HEPES-buffered Krebs solution equilibrated with 5%CO2 -95%O2 at 37° C. Initial perfusion was in a non-recirculating manner to remove internal blood. Hearts were allowed to warm up gradually and, when free of internal blood, transferred to a 37° C. water-jacketed organ bath containing carbogenated Krebs medium, and perfusion continued in a recirculating manner. Following a 15 minute equilibration period, hearts were labelled with [^3 H]-inositol, 2 μCi/ml for 2 h. Hearts were monitored throughout the labelling period for strong rhythmic beating.
# (§2) Following labelling, the [^3 H]-inositol-containing medium was removed, and replaced with Krebs medium containing propranolol (10^-6 M) and lithium chloride (50 mM) to block β-adrenergic receptors and to inhibit InsP metabolism by InsP 1'-phosphatase respectively (20). Hearts were perfused with propranolol, LiCi solution for 10 minutes prior to ischaemia. Antagonists, when administered, were included in this 10 minute preincubation. Normothermic global ischaemia was induced by terminating perfusion for various times up to 30 minutes. Reperfusion was examined following a 20 minute ischaemic period by resuming perfusion at 5 ml/min. Reactions were terminated by freezing hearts in liquid N2 following excision at the atrioventricular junction. Frozen ventricles were weighed and inositol phosphates extracted as described below.
# (§3) Inositol phosphates were extracted from ventricle samples in 3.5 ml ice-cold 5% trichloroacetic acid (TCA), 2.5 mM EDTA, 5 mM phytate solution, as described previously (21). Briefly, ventricles were homogenised with two 10 second passes of a "Polytron" homogenizer separated by 15 second periods on ice. Samples were homogenised further using a Potter-Elvejheim homogeniser followed by brief sonication. Homogenised samples were centrifuged (5000 rpm, 10 min, 4° C.) to remove TCA insoluble material. Supernatants were collected, and the remaining pellet re-extracted in 1.5 ml TCA, EDTA, phytate. Supernatants were pooled and freon, tri-n-ocylamine (1:1 v/v 0.75 ml:1 ml TCA solution) was added, mixed thoroughly, and phases separated by low speed centrifugation (2000 rpm, 10 min 4° C.). The resultant aqueous phase, containing inositol phosphates was collected and treated with proteinase K (50 μg/ml, 2 hr, 50° C.). This process was necessary to preserve the chromatography column. Treated samples were passed through a 1 ml Dowex-50 column (4% cross-linked 4-400 mesh size) and eluted with 1 ml water (22). Urea (0.05 M final) was added (23) and samples lyophilized prior to high performance liquid chromatography (HPLC) analysis. Recovery of inositol phosphates using this method was greater than 95% for each isomer, as estimated by addition of [^3 H]-labelled standards to extractions of unlabelled hearts.
# (§4) Inositol phosphates were separated by an anion-exchange HPLC system using a Whatman Partisil 10μ SAX column in a Waters Radial Compression Unit, employing a complex ammonium phosphate gradient, pH 3.8 from 0-2 M as described previously (24). Inositol phosphates were detected and quantitated using an on-line […] (model CR, Radiomatic Instruments) All peaks were identified by comparison with commercial standards. Nucleotide standards AMP, ADP, and ATP were run with samples to assess column performance.
# (§5) Values presented are mean ±SEM, for n=4 unless otherwise stated. Statistical analysis of results involved Students' unpaired "t-test" for all InsP data.
# [2] = test system: hearts from reserpinized rats; assay: Arrhythmic effect of thrombin under reperfusion conditions, perfused hearts from reserpinized rats; parameters: species or system rat; conditions: for VF% / VT%: n 9
# Method: (§6) A model of in situ perfused rat hearts subjected to 20 minutes coronary artery occlusion to induce ischaemia, followed by reperfusion was used to investigate reperfusion-induced arrhythmias.
# (§7) Rats (250-300 g) were anaesthetised (pentobarbitone 60 mg/kg, I.P.) and heparinised (200 U/rat I.V.) The thorax was then opened and a metal cannula (ID 1 mm) inserted and tied into the ascending aorta, to commence Langendorff perfusion in situ (31). The interval from opening the chest to commencing heart perfusion was between 50 and 70 seconds. The perfusate was Krebs buffer, with coronary flow controlled by a Ismatac peristaltic pump at a rate of 5 ml/g heart weight/min for the non-ischaemic perfusion. At this flow rate the coronary perfusion pressure was between 32-38 mmHg, measured by pressure transducer (Gould Statham model p23) connected to the sidearm of the perfusion line. Following aortic cancellation, pulmonary vessels were tied off. In some preparations, ventricular pressure was measured by inserting a Millar micro-tip transducer catheter into the left ventricular cavity via the apex. All parameters--coronary perfusion pressure, ventricular pressure, and epicardial ECG, were constantly recorded on a Grass model 7 polygraph. Two hearts were perfused and simultaneously studied.
# (§8) A silk suture (4.0) was positioned loosely around the left coronary artery 2-3 mm from its origin. Two silk releasing rings were placed around the suture for subsequent release of occlusion. Successful occlusion of the artery, inducing regional ischaemia, was indicated by increases in coronary perfusion pressure of at least 30%. Perfusion pressure was adjusted to non-ischaemic perfusion levels during the ischaemic period.
# (§9) Drugs were added to the perfusion via a Harvard Model 22 pump. The drug flow was less than 1% of perfusion flow to ensure constant perfusate parameters. Unless mentioned otherwise, the drugs were present 10 minutes before, and during the entire ischaemic and reperfusion periods.
# (§10) Heart preparations were allowed to stabilise for at least 20 minutes prior to commencing studies. Following 10 minute drug incubation, the left coronary artery was ligated to induce local ischaemia, for a period of 20 minutes. At the end of this ischaemic period, the ligature was released and hearts perfused at pre-ischaemic flow for a period of 5 minutes. Ventricular arrhythmias, occurring during ischaemia or during the first 2 minutes of reperfusion were defined according to the Lambeth Conventions (32).
# The finding that thrombin directly stimulated release of Ins(1,4,5)P3 in heart indicates the possibility that thrombin might cause arrhythmias directly via this mechanism. Experiments were performed using hearts from reserpinized rats so that arrhythmic events initiated by noradrenaline were eliminated. Reperfusion arrhythmias were not observed in hearts from reserpinized animals. […] Furthermore, these arrhythmias were inhibited by gentamicin, indicating a relationship to release of Ins(1,4,5)P3 (Table 2).
# [3] = test system: Ins(1,4,5)P3 release; assay: Ins(1,4,5)P3 mass in isolated perfused rat hearts, 2 min reperfusion after 20 min global ischaemia (competitive binding assay); conditions: for Ins(1,4,5)P3 mass: control 200 ± 18
# Method: as §1, §2, §3
# Mass of Ins(1,4,5)P3 was measured using a competitive binding assay (Amersham TRK 1000) essentially as described previously (26). Ventricle samples were prepared as described above except for the omission of [^3 H]-label during the 2 hr perfusion of hearts prior to ischaemia, and for the use of 5 mm ATP instead of phytate in the extraction procedure.
# Protein concentration was determined in aliquots of TCA pellet following InsP extraction using a modified Lowry method with Bovine Serum Albumin as a standard.
# as §5
# [4] = test system: in situ perfused rat hearts; conditions: for Reperfusion-induced arrhythmias VF % incidence / Reperfusion-induced arrhythmias VT % incidence: control 83
# Method: as §6, §7, §8, §9, §10
# Incidence of arrhythmias was analysed using a .chi.^2 test, with n≥8 for each group.
# [5] = test system: PI-PLC kidney cy; conditions: cytosolic enzyme; from the literature (35); cited from earlier work
# [6] = test system: PI-PLC kidney me; conditions: membrane enzyme; from the literature (35); cited from earlier work
# [7] = test system: PI-PLC heart rep; assay: Inhibition of PI-PLC in hearts under reperfusion conditions; parameters: species or system rat
# Method: as §1, §2
# Mass of Ins(1,4,5)P3 was measured using a competitive binding assay (Amersham TRK 1000) essentially as described previously (26). […]
# [8] = test system: inositol phosphate accumulation in heart tissue; assay: Inositol phosphate accumulation in healthy (normoxic) heart tissue; parameters: species or system rat; conditions: healthy heart tissue
# Method: as §1, §3, §4
# [9] = test system: Ins(1,4,5)P3 release; assay: Thrombin-stimulated release of Ins(1,4,5)P3 in heart tissue
# [10] = hearts from reserpinized rats, no thrombin
# [11] = 0.5 mM, 2 min reperfusion after 20 min global ischaemia
# [12] = 5 mM, 2 min reperfusion after 20 min global ischaemia
# [13] = 25 μg/kg I.P. 48 h prior to experimentation
# [14] = thrombin 2 U/ml in perfusate, reserpinized hearts
compound,measurement,setting,value
NC[C@H](O)c1ccc(O)c(O)c1 [noradrenaline],"release of [3H]-labelled Ins(1,4,5)P3 on reperfusion","[1]; 10^-4 M perfusion, reserpinized animals",reinstated
COc1cc2nc(N3CCN(C(=O)c4ccco4)CC3)nc(N)c2cc1OC [prazosin],2 minute reperfusion inositol phosphate response,[1]; 10 μM,inhibited
same,redistribution of [3H]-labelled inositol phosphates under ischaemic conditions,"[1]; global ischaemia, α1 adrenoceptor blockade",unaffected
COC(=O)[C@H]1[C@H]2C[C@@H]3c4[nH]c5cc(OC)ccc5c4CCN3C[C@H]2C[C@@H](OC(=O)c2cc(OC)c(OC)c(OC)c2)[C@@H]1OC [reserpine],rapid accumulation of inositol phosphates at 2 minutes post-ischaemic reperfusion,[1]; prior reserpine treatment (5 mg/kg I.P. 18 hrs),prevented
same,VF%,[2]; [10],0%
same,VT%,[2]; [10],44%
NCCCNCCCCNCCCN [spermine],"inhibition of reperfusion-induced Ins(1,4,5)P3 release",[3],inhibitory
same,"Ins(1,4,5)P3 mass",[3]; [11],182 + 4 pmol/mg protein
same,"Ins(1,4,5)P3 mass",[3]; [12],160 ± 9 pmol/mg protein
same,effect on reperfusion arrhythmias,[4],inhibited
same,Reperfusion-induced arrhythmias VF % incidence,[4]; 0.5 mM,36%
same,Reperfusion-induced arrhythmias VT % incidence,[4]; 0.5 mM,63%
same,Reperfusion-induced arrhythmias VF % incidence,[4]; 5 mM,20%
same,Reperfusion-induced arrhythmias VT % incidence,[4]; 5 mM,30%
CN[C@@H]1C[C@H]2O[C@@](C)([C@@H]1OC)n1c3ccccc3c3c4c(c5c6ccccc6n2c5c31)C(=O)NC4 [staurosporine],percentage incidence of reperfusion-induced arrhythmias vs untreated controls,[4]; 10^-7 M,did not significantly alter
same,Reperfusion-induced arrhythmias VF % incidence,[4]; .1 μM,69%
same,Reperfusion-induced arrhythmias VT % incidence,[4]; .1 μM,83%
Pertussis toxin [PTX],"Ins(1,4,5)P3 mass",[3]; [13],128 ± 28 pmol/mg protein
same,Reperfusion-induced arrhythmias VF % incidence,[4]; [13],10%
same,Reperfusion-induced arrhythmias VT % incidence,[4]; [13],40%
neomycin,"Ins(1,4,5)P3 mass","[3]; 0.05 mM, 2 min reperfusion after 20 min global ischaemia, mean±SEM, 4 hearts",184 ± 7 pmol/mg protein
same,"Ins(1,4,5)P3 mass",[3]; [11],121 ± 11 pmol/mg protein
same,"Ins(1,4,5)P3 mass",[3]; [12],104 ± 12 pmol/mg protein
same,EC50,[5],30 µM
same,rats showing both severe VT and VF throughout reperfusion,[4]; 0.05 mM,6 out of 8
same,Reperfusion-induced arrhythmias VF % incidence,[4]; 0.05 mM,70%
same,Reperfusion-induced arrhythmias VT % incidence,[4]; 0.05 mM,75%
same,rats exhibiting VT or VF on reperfusion,[4]; 0.5 mM,none of the 10 rats
same,heart rate and ventricular pressure,"[4]; 0.5 mM, after 10 minute incubation prior to occlusion",not significantly differing from control
same,Reperfusion-induced arrhythmias VF % incidence,[4]; 0.5 mM,0%
same,Reperfusion-induced arrhythmias VT % incidence,[4]; 0.5 mM,0%
same,Reperfusion-induced arrhythmias VF % incidence,[4]; 5 mM,0%
same,Reperfusion-induced arrhythmias VT % incidence,[4]; 5 mM,0%
same,EC50,[6],200 µM
same,inhibition of accumulation of [3H]-labelled inositol phosphates,"[1]; 0.05 mM, added 10 min prior to ischaemia, 2 min reperfusion",did not significantly inhibit
same,average inhibition of [3H]-labelled inositol phosphate accumulation,[1]; 0.5 mM,45%
same,average inhibition of [3H]-labelled inositol phosphate accumulation,[1]; 5 mM,55%
same,increase in sensitivity of myocardial tissue to neomycin during post-ischaemic reperfusion,[1]; reperfusion vs healthy heart,more than 10 fold
same,EC50,[7],400 µM
same,effect on accumulations of Inositol phosphate1 and Inositol phosphate2,[8]; 5 mM,without effect
same,"reduction in accumulation of [3H]Ins(1,4,5)P3",[8]; 5 mM,20%
same,effect on inositol phosphate accumulation,[8]; concentrations lower than 5 mM,ineffective
thrombin,"release of Ins(1,4,5)P3 in heart tissue",[9],directly stimulates release
same,reperfusion arrhythmias,"[2]; thrombin 2 U/ml added to perfusate, reserpinized hearts",high incidence
same,VF%,[2]; [14],67%
same,VT%,[2]; [14],89%
